In patent publication US12172985B1, “6-(6-bromo-2-oxo-2H-chromen-3-yl)-4-(3-bromophenyl)-2-alkoxynicotinonitrile as antimicrobial compounds” (KING FAISAL UNIVERSITY, priority 2023, dated 2024):

Assays:
Format in all cases: cell-based
Pseudomonas aeruginosa = test: Agar plate disc-diffusion, antibacterial inhibition zone; conditions: DMSO control zone subtracted
Protocol: (§1) The agar plate disc-diffusion method was applied. Sterilized filter papers (6 mm in diameter) were wetted with 10 μL of a solution of compounds 6-(6-bromo-2-oxo-2H-chromen-3-yl)-4-(3-bromophenyl)-2-ethoxynicotinonitrile 1 or 6-(6-bromo-2-oxo-2H-chromen-3-yl)-4-(3-bromophenyl)-2-methoxynicotinonitrile 2 to be tested, containing […], and the discs were allowed to air dry. The discs were then placed onto the surface of agar plates (nutrient agar for bacteria and Sabouraud's dextrose agar for fungi) seeded with the test organism. Each plate contained 15 mL of the agar medium, previously seeded with 0.2 mL of the broth culture of each organism pregrown for 18 hours. The plates were incubated at 37° C. for 48 hours, and 72 hours for fungi. The inhibition zones were measured in mm. Discs impregnated with DMSO were used as a control, and its inhibition zone was subtracted from the tested compound actual inhibition zone.
(§2) The results of the antimicrobial testing can be observed in Tables 1 and 2, below, using ciprofloxacin as a reference.

Staphylococcus aureus = test: as above; conditions: DMSO control zone subtracted
Protocol: as §1, §2

Escherichia coli = test: as above; conditions: DMSO control zone subtracted
Protocol: as §1, §2

Bacillus Cereus = test: as above; conditions: DMSO control zone subtracted
Protocol: as §1, §2

[1] = tested on: Chrysosporium keratinophilum; test: Agar plate disc-diffusion, antifungal inhibition zone; conditions: DMSO control zone subtracted
Protocol: as §1, §2

Aspergillus flavus = test: as above; conditions: DMSO control zone subtracted
Protocol: as §1, §2

different microbes = test: Antimicrobial testing, overall conclusion; conditions: summary of Tables 1 and 2, bacteria and fungi
Protocol: as §1, §2
Their antibacterial activity was screened against gram positive bacteria namely Bacillus cereus and Staphylococcus aureus and gram-negative bacterial strains namely Pseudomonas aeruginosa and Escherichia coli, while their antifungal activity was screened against Aspergillus flavus and Chrysosporium keratinophilum.

[2] = B = concentration of comp. = 30,000 μL
[3] = C = concentration of comp. = 50,000 μL
[4] = A = concentration of comp. = 10,000 μL

CCOc1nc(-c2cc3cc(Br)ccc3oc2=O)cc(-c2cccc(Br)c2)c1C#N [Compound 1, 6-(6-bromo-2-oxo-2H-chromen-3-yl)-4-(3-bromophenyl)-2-ethoxynicotinonitrile]
inhibition zone (Pseudomonas aeruginosa; A = concentration of comp.): 24 mm
inhibition zone (Pseudomonas aeruginosa; [2]): 28 mm
inhibition zone (Pseudomonas aeruginosa; [3]): 38 mm
inhibition zone (Staphylococcus aureus; [4]): 16 mm
inhibition zone (Staphylococcus aureus; [2]): 19 mm
inhibition zone (Staphylococcus aureus; [3]): 33 mm
inhibition zone (Escherichia coli; [4]): 28 mm
inhibition zone (Escherichia coli; [2]): 37 mm
inhibition zone (Escherichia coli; [3]): 48 mm
inhibition zone (Bacillus Cereus; A =): 23 mm
inhibition zone (Bacillus Cereus; [2]): 26 mm
inhibition zone (Bacillus Cereus; [3]): 36 mm
inhibition zone [1, 4]: 25 mm
inhibition zone [1, 2]: 28 mm
inhibition zone [1, 3]: 39 mm
inhibition zone (Aspergillus flavus; [4]): 20 mm
inhibition zone (Aspergillus flavus; [2]): 24 mm
inhibition zone (Aspergillus flavus; [3]): 34 mm
antimicrobial activities (in words) (different microbes): high antimicrobial activities

O=C(O)c1cn(C2CC2)c2cc(N3CCNCC3)c(F)cc2c1=O [Cip., ciprofloxacin, reference compound]
inhibition zone (Pseudomonas aeruginosa; A = concentration of comp.): 29 mm
inhibition zone (Pseudomonas aeruginosa; [2]): 30 mm
inhibition zone (Pseudomonas aeruginosa; [3]): 53 mm
inhibition zone (Staphylococcus aureus; [4]): 43 mm
inhibition zone (Staphylococcus aureus; [2]): 44 mm
inhibition zone (Staphylococcus aureus; [3]): 53 mm
inhibition zone (Escherichia coli; [4]): 30 mm
inhibition zone (Escherichia coli; [2]): 39 mm
inhibition zone (Escherichia coli; [3]): 60 mm
inhibition zone (Bacillus Cereus; A =): 29 mm
inhibition zone (Bacillus Cereus; [2]): 30 mm
inhibition zone (Bacillus Cereus; [3]): 42 mm
inhibition zone [1, 4]: 29 mm
inhibition zone [1, 2]: 30 mm
inhibition zone [1, 3]: 53 mm
inhibition zone (Aspergillus flavus; [4]): 29 mm
inhibition zone (Aspergillus flavus; [2]): 30 mm
inhibition zone (Aspergillus flavus; [3]): 42 mm

COc1nc(-c2cc3cc(Br)ccc3oc2=O)cc(-c2cccc(Br)c2)c1C#N [Compound 2, 6-(6-bromo-2-oxo-2H-chromen-3-yl)-4-(3-bromophenyl)-2-methoxynicotinonitrile]
inhibition zone (Pseudomonas aeruginosa; A = concentration of comp.): 25 mm
inhibition zone (Pseudomonas aeruginosa; [2]): 32 mm
inhibition zone (Pseudomonas aeruginosa; [3]): 37 mm
inhibition zone (Staphylococcus aureus; [4]): 15 mm
inhibition zone (Staphylococcus aureus; [2]): 23 mm
inhibition zone (Staphylococcus aureus; [3]): 29 mm
inhibition zone (Escherichia coli; [4]): 28 mm
inhibition zone (Escherichia coli; [2]): 35 mm
inhibition zone (Escherichia coli; [3]): 48 mm
inhibition zone (Bacillus Cereus; A =): 27 mm
inhibition zone (Bacillus Cereus; [2]): 29 mm
inhibition zone (Bacillus Cereus; [3]): 37 mm
inhibition zone [1, 4]: 24 mm
inhibition zone [1, 2]: 28 mm
inhibition zone [1, 3]: 42 mm
inhibition zone (Aspergillus flavus; [4]): 24 mm
inhibition zone (Aspergillus flavus; [2]): 27 mm
inhibition zone (Aspergillus flavus; [3]): 39 mm
antimicrobial activities (in words) (different microbes): high antimicrobial activities
